Patent publication EP1117659B1, “SUBSTITUTED 3-CYANOQUINOLINES AS PROTEIN TYROSINE KINASES INHIBITORS” (Wyeth Holdings Corporation, priority 1998, dated 2000)
≈ marks a conversion by molar mass, not a printed value. Where “and” joins values, the source holds several entries; their conditions need not be identical. Identical values can stand only once. Like-named read-outs stand apart in the source and are kept apart here.

What was measured:
[1] = molecular target: Epithelial Cell Kinase (ECK) (Homo sapiens, UniProt P29317); assay: Inhibition of Epithelial Cell Kinase (ECK), immobilized biotinylated peptide, HRP anti-phosphotyrosine readout; assay type: biochemical; conditions: IC50, substrate phosphorylation
Method: In this standard pharmacological test procedure, a biotinylated peptide substrate is first immobilized on neutravidin-coated microtiter plates. The test drug, the Epithelial Cell Kinase (ECK), Mg^++, sodium vanadate (a protein tyrosine phosphatase inhibitor), and an appropriate buffer to maintain pH (7.2) are then added to the immobilized substrate-containing microtiter wells. ATP is then added to initiate phosphorylation. After incubation, the assay plates are washed with a suitable buffer leaving behind phosphorylated peptide which is exposed to horse radish peroxidase (HRP)-conjugated anti-phosphotyrosine monoclonal antibody. The antibody-treated plates are washed again and the HRP activity in individual wells is quantified as a reflection of degree of substrate phosphorylation. […] Multiple entries for a given compound indication it was tested multiple times.

[2] = molecular target: T1, Kinase insert Domain containing Receptor (KDR: the catalytic domain of the VEGF receptor) (Homo sapiens, UniProt P35968); assay: Inhibition of Kinase insert Domain containing Receptor (KDR), radioactive phosphorylation of Glu:Tyr copolymer; assay type: biochemical; conditions: IC50, substrate phosphorylation
T1 construct: KDR: the catalytic domain of the VEGF receptor
Method: In this standard pharmacological test procedure, KDR protein is mixed, in the presence or absence of a inhibitor compound, with a substrate peptide to be phosphorylated (a copolymer of glutamic acid and tyrosine, E:Y :: 4:1) and other cofactors such as Mg^++ and sodium vanadate (a protein tyrosine phosphatase inhibitor) in an appropriate buffer to maintain pH (7.2). ATP and a radioactive tracer (either P^32- or P^33- labeled ATP) is then add to initiate phosphorylation. After incubation, the radioactive phosphate associated with the acid-insoluble fraction of the assay mixture is then quantified as reflection of substrate phosphorylation. […] Multiple entries for a given compound indication it was tested multiple times.

A431 = assay: Inhibition of Cancer Cell Growth as Measured by Cell Number (Sulforhodamine B); assay type: cell-based, Human; conditions: 48 hours exposure; for IC50: Homo sapiens, A-431, 48 h
Method: (§1) Human tumor cell lines were plated in 96-well plates (250 µl/well, 1-6 x 10^4 cells/ml) in RPMI 1640 medium, containing 5% FBS (Fetal Bovine Serum). […] After 48 hours exposure to test compounds, cells were fixed with trichloroacetic acid, and stained with Sulforhodamine B. After washing with trichloroacetic acid, bound dye was solubilized in 10 mM Tris base and optical density was determined using plate reader. Under conditions of the assay the optical density is proportional to the number of cells in the well. […] The test procedure is described in details by Philip Skehan et. al, J.Natl. Canc. Inst., 82, 1107-1112 (1990). […] Information about some of the cell lines used in these test procedures is available from the American Type Tissue Collection: Cell Lines and Hybridomas, 1994 Reference Guide, 8th Edition.

MDA-MB-435 = assay: as above; assay type: cell-based, Human; conditions: 48 hours exposure; for IC50: Homo sapiens, MDA-MB-435, 48 h
Method: as §1

SK-BR3 = assay: as above; assay type: cell-based, Human; conditions: 48 hours exposure; for IC50: Homo sapiens, SK-BR-3, 48 h
Method: as §1

SW620 = assay: as above; assay type: cell-based, Human; conditions: 48 hours exposure; for IC50: Homo sapiens, SW-620, 48 h
Method: as §1

3T3/c-erbb2 = assay: as above; assay type: cell-based; conditions: 48 hours exposure
Method: as §1

3T3 = assay: as above; assay type: cell-based; conditions: 48 hours exposure; for IC50: Mus musculus, NIH3T3
Method: as §1

[3] = molecular target: Recombinant human MEK 1 (MAPKK) / recombinant human ERK2 (MAPK) (Mek-Erk) (Homo sapiens, UniProt P28482+Q02750); assay: Mitogen Activated Protein Kinase (MAPK) assay, two component coupled Mek-Erk test; assay type: biochemical
[4] = molecular target: T2, epidermal growth factor receptor kinase (EGF-R Kinase, recombinant enzyme; His-tagged cytoplasmic domain of EGFR) (Homo sapiens, UniProt P00533); assay: Inhibition of Epidermal Growth Factor Receptor Kinase (EGF-R) using recombinant enzyme, RR-SRC peptide phosphorylation, 33P-ATP; assay type: biochemical; conditions: for inhibition at 0.5 µM: read-out: %Inh @ 0.5 µM; for IC50: recombinant enzyme, 90 min at room temperature
T2 construct: EGFR cDNA encoding amino acids 645 - 1186 preceded by Met-Ala-(His)6; Met-Ala-(His)6 (N); made in house; host or cells: Sf9 insect cells, recombinant baculovirus vHcEGFR52
Method: Representative test compounds were evaluated for their ability to inhibit the phosphorylation of the tyrosine residue of a peptide substrate catalyzed by the enzyme epidermal growth factor receptor kinase. The peptide substrate (RR-SRC) has the sequence arg-arg-leu-ile-glu-asp-ala-glu-tyr-ala-ala-arg-gly. The enzyme used in this test procedure is the His-tagged cytoplasmic domain of EGFR. A recombinant baculovirus (vHcEGFR52) was constructed containing the EGFR cDNA encoding amino acids 645 - 1186 preceded by Met-Ala-(His)6. Sf9 cells in 100 mm plates were infected at an moi of 10 pfu/cell and cells were harvested 48 h post infection. A cytoplasmic extract was prepared using 1% Triton X-100 and applied to Ni-NTA column. After washing the column with 20 mM imidazole, HcEGFR was eluted with 250 mM imidazole (in 50 mM Na2HPO4, pH 8.0, 300 mM NaCl). Fractions collected were dialyzed against 10 mM HEPES, pH 7.0, 50 mM NaCl, 10% glycerol, lug/mL antipain and leupeptin and 0.1 mM Pefabloc SC. The protein was frozen in dry ice/methanol and stored -70°C.
Test compounds were made into 10 mg/mL stock solutions in 100% dimethylsulfoxide (DMSO). Prior to experiment, stock solutions were diluted to 500 uM with 100% DMSO and then serially diluted to the desired concentration with HEPES buffer (30 mM HEPES pH 7.4).
For the enzyme reaction, 10 uL of each inhibitor (at various concentrations) were added to each well of a 96-well plate. To this was added 3 uL of enzyme (1:10 dilution in 10mM HEPES, pH 7.4 for final cone. of 1:120). This was allowed to sit for 10 min on ice and was followed by the addition of 5 ul peptide (80 uM final cone.), 10ul of 4X Buffer (Table A), 0.25 uL ^33P-ATP and 12 uL H2O. The reaction was allowed to run for 90 min at room temperature and was followed by spotting the entire volume on to precut P81 filter papers. The filter discs were washed 2X with 0.5% phosphoric acid and radioactivity was measured using a liquid scintillation counter.
The inhibition data for representative compounds of the invention are shown below in TABLE 1. […] The % inhibition of the test compound was determined for at least three different concentrations and the IC50 value was evaluated from the dose response curve. […] CPM(control) is in units of counts per minute and was a number expressing the amount of radiolabled ATP (γ-^33P) incorporated into the RR-SRC peptide substrate by the enzyme after 90 minutes at room temperature in the absence of test compound as measured by liquid scintillation counting. The CPM values were corrected for the background counts produced by ATP in the absence of the enzymatic reaction. […]

Sequence of Epithelial Cell Kinase (ECK) (P29317 24-976, species assumed): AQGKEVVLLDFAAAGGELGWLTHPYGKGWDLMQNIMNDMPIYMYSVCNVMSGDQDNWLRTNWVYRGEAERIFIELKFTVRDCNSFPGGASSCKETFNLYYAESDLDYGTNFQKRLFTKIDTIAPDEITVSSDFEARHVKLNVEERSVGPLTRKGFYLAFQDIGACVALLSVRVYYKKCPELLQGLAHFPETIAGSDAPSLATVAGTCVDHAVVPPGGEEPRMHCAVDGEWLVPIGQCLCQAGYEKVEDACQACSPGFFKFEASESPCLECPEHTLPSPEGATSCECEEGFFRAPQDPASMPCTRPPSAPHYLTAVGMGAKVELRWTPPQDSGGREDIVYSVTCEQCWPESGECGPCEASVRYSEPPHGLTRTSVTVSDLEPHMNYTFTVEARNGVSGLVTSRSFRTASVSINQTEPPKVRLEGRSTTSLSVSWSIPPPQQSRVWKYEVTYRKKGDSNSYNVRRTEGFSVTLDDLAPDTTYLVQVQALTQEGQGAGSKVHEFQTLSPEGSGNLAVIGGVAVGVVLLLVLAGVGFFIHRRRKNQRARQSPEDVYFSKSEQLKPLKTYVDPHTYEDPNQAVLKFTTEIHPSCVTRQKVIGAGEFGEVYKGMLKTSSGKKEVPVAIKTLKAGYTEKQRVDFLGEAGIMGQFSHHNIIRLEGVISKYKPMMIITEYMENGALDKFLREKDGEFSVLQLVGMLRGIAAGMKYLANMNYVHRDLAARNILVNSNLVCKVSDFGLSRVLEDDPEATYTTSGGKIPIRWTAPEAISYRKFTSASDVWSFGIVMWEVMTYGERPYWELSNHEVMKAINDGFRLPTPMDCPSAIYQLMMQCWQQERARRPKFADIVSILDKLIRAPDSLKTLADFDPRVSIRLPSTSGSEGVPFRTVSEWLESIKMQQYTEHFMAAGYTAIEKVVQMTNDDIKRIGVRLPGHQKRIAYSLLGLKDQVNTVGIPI
T2 sequence (P00533 669-1210): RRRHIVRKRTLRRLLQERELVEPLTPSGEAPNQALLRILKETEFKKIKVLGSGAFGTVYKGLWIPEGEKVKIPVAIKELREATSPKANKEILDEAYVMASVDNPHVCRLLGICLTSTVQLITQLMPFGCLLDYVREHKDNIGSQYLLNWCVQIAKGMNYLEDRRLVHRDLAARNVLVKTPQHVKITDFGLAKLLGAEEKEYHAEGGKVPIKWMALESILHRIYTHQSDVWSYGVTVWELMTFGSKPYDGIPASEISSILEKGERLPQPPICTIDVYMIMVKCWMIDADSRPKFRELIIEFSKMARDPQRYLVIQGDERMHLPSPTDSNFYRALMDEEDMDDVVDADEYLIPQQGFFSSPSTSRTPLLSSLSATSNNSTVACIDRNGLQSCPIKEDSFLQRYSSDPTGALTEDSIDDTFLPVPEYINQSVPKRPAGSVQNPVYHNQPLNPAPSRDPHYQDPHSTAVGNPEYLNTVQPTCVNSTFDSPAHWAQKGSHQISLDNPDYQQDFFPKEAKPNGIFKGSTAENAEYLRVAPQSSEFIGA
T1 sequence (P35968 834-1162 limits assumed): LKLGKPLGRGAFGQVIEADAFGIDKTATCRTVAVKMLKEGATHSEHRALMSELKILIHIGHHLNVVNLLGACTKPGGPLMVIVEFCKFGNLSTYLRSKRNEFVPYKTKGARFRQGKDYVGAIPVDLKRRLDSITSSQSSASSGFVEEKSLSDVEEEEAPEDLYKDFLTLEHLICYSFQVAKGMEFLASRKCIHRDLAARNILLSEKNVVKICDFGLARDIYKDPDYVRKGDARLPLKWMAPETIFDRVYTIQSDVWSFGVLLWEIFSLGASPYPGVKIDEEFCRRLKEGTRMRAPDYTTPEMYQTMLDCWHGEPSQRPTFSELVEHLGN

IC50 (A431) [µg/mL]	IC50 (MDA-MB-435) [µg/mL]	IC50 (SK-BR3) [µg/mL]	IC50 (SW620) [µg/mL]	Compound	IC50 [1] [µM]	IC50 [2]	IC50 µg/mL A431 (A431) [µg/mL]	IC50 µg/mL MDA-MB-435 (MDA-MB-435) [µg/mL]	IC50 µg/mL SK-BR3 (SK-BR3) [µg/mL]	IC50 µg/mL SW620 (SW620) [µg/mL]	IC50 µg/mL 3T3/c-erbb2 (3T3/c-erbb2) [µg/mL]	IC50 µg/mL 3T3 (3T3) [µg/mL]	IC50 ([3]; read-out: Mek-Erk)	IC50 (3T3/c-erbb2) [µg/mL]	IC50 (3T3) [µg/mL]	IC50 ([3]; read-out: Mek-Erk µM) [µM]	inhibition at 0.5 µM [4] [%]	IC50 [4] [µM]
				4-(2,3-Dihydro-benzo[1,4]dioxin-6-ylamino)-6,7-diethoxy-quinoline-3-carbonitrile [Example 105]	> 51.1	76.6 µM	0.270	0.235	0.281	0.411	0.375	0.853						
				6,7-Diethoxy-4-(1-oxo-indan-5-ylamino)-quinoline-3-carbonitrile [Example 110]			0.0244	0.0280	0.0281	0.0181	0.0311	0.0923	> 100 µM and 50 µM					
1.96 (≈ 4.52 µM)	2.04 (≈ 4.72 µM)	> 5	> 5	COCCOc1cc2ncc(C#N)c(Nc3ccc4cn[nH]c4c3)c2cc1OCCOC [Example 106, 4-(1H-Indazol-6-ylamino)-6,7-bis-(2-methoxy-ethoxy)-quinoline-3-carbonitrile]	> 46.1	23.1 µM								> 5	> 5			
> 5	> 5	> 5	> 5	CCOc1cc2ncc(C#N)c(Nc3ccc4c(=O)[nH][nH]c(=O)c4c3)c2cc1OCC [Example 107, 4-(1,4-Dioxo-1,2,3,4-tetrahydro-phthalazin-6-ylamino)-6,7-diethoxy-quinoline-3-carbonitrile]	> 47.9	> 71.9 µM								> 5	> 5			
0.342 (≈ 0.916 µM)	0.352 (≈ 0.943 µM)	0.294 (≈ 0.787 µM)	< 0.0005	CCOc1cc2ncc(C#N)c(Nc3ccc4c(c3)CCC4)c2cc1OCC [Example 108, 6,7-Diethoxy-4-(indan-5-ylamino)-quinoline-3-carbonitrile]	> 2.68	> 80.3 µM								0.0198 (≈ 0.053 µM)	0.525 (≈ 1.41 µM)			
0.257 (≈ 0.61 µM)	0.0033 (≈ 0.00783 µM)	0.336 (≈ 0.797 µM)	0.146 (≈ 0.346 µM)	CCOc1cc2ncc(C#N)c(Nc3ccc4c(c3)S(=O)(=O)C=C4)c2cc1OCC [Example 112, 4-(1,1-Dioxo-1H-benzo[b]thiophen-6-ylamino)-6,7-diethoxy-quinoline-3-carbonitrile]	> 47.5	> 71.2 µM							> 100 µM	0.251 (≈ 0.596 µM)	0.392 (≈ 0.93 µM)			
0.786 (≈ 2.19 µM)	2.63 (≈ 7.31 µM)	2.09 (≈ 5.83 µM)	4.31 (≈ 12 µM)	CCOc1cc2c(Nc3ccc4cn[nH]c4c3)c(C#N)cnc2cc1OC [Example 126, 6-Ethoxy-4-(1H-indazol-6-ylamino)-7-methoxyquinoline-3-carbonitrile]	> 27.9	8.36 µM and > 2.79 µM							> 100 µM	4.8 (≈ 13.4 µM)	3.22 (≈ 8.96 µM)			0.45
				COc1cc2ncc(C#N)c(Nc3ccc4ncccc4c3)c2cc1OC [Example 153, 6,7-Dimethoxy-4-(quinoline-6-ylamino)-quinoline-3-carbonitrile]	> 28.1	> 28.1 µM							> 100 µM				14	> 1
				COc1cc2c(Nc3ccc4nn[nH]c4c3)c(C#N)cnc2c(OC)c1OC [Example 156, 4-(3H-Benzotriazol-5-ylamino)-6,7,8-Trimethoxy-quinoline-3-carbonitrile]	> 26.6	> 79.7 µM										35	34	> 1

Compound	IC50 (A431) [µg/mL]	IC50 (MDA-MB-435) [µg/mL]	IC50 (SK-BR3) [µg/mL]	IC50 (SW620) [µg/mL]	IC50 [1] [µM]	IC50 [2]	IC50 µg/mL A431 (A431) [µg/mL]	IC50 µg/mL MDA-MB-435 (MDA-MB-435) [µg/mL]	IC50 µg/mL SK-BR3 (SK-BR3) [µg/mL]	IC50 µg/mL SW620 (SW620) [µg/mL]	IC50 µg/mL 3T3/c-erbb2 (3T3/c-erbb2) [µg/mL]	IC50 µg/mL 3T3 (3T3) [µg/mL]	IC50 ([3]; read-out: Mek-Erk)	IC50 (3T3/c-erbb2) [µg/mL]	IC50 (3T3) [µg/mL]	IC50 ([3]; read-out: Mek-Erk µM) [µM]	inhibition at 0.5 µM [4] [%]	IC50 [4] [µM]
CCOc1cc2ncc(C#N)c(Nc3ccc4[nH]c(=O)oc(=O)c4c3)c2cc1OCC [Example 109, 4-(2,4-Dioxo-1,4-dihydro-2H-benzo[d][1,3]oxazin-6-ylamino)-6,7-diethoxy-quinoline-3-carbonitrile]	> 5	> 5	> 5	2.92 (≈ 6.98 µM)	> 47.8	23.9 µM								4.62 (≈ 11 µM)	> 5	> 100		
CCOc1cc2ncc(C#N)c(Nc3ccc4c(c3)C(=O)OC4)c2cc1OCC [Example 111, 6,7-Diethoxy-4-(3-oxo-1,3-dihydro-isobenzofuran-5-ylamino)-quinoline-3-carbonitrile]	> 5	3.4 (≈ 8.74 µM)	> 5	1.56 (≈ 4.02 µM)	> 51.4	> 77 µM								3.3 (≈ 8.48 µM)	> 5	> 100	10	> 1
CCOc1cc2ncc(C#N)c(Nc3ccc4cn[nH]c4c3)c2cc1OC [Example 115, 7-Ethoxy-4-(indazol-6-ylamino)-6-methoxy-quinoline-3-carbonitrile]	0.0368 (≈ 0.102 µM)	0.0359 (≈ 0.0999 µM)	0.022 (≈ 0.0612 µM)	0.0212 (≈ 0.059 µM)	> 27.8	5.56 µM and > 2.78 µM							25 µM	0.0267 (≈ 0.0743 µM)	0.344 (≈ 0.957 µM)		49	> 0.5
CCOc1cc2ncc(C#N)c(Nc3ccc4c(c3)C(=O)NCC(=O)N4C)c2cc1OCC [Example 127, 6,7-Diethoxy-4-(1-methyl-2,5-dioxo-2,3,4,5-tetrahydro-1H-benzo[e][1,4]diazepin-7-ylamino)-quinoline-3-carbonitrile]	> 5	> 5	> 5	> 5	> 44.9	> 67.3 µM							> 100 µM	> 5	> 5		25	> 1
